Reference: US20090022739A1, “MODULATING THE KV1.1 VOLTAGE-GATED POTASSIUM CHANNEL IN T-CELLS FOR REGULATING THE […] AND SECRETION OF TUMOR NECROSIS FACTOR ALPHA (tnf-ALPHA) AND TREATING HUMAN DISEASE OR INJURIES MEDIATED BY […] HIGH OR LOW LEVELS OF TNF-ALPHA” (priority 2005, published 2009)
Like-named read-outs stand apart in the source and are kept apart here.

Assays:
human T-cells = conditions: data not shown
normal human T-cells = type: cell-based
Protocol: Human T-Cells: Normal human T-cells were purified from peripheral blood of healthy donors as described (Levite et al, 2000; Ganor et al, 2003; Levite t al, 1998), and the resulting cell population, containing ≧90% T-cells, was suspended in RPMI medium supplemented with 10% FCS, 1% L-Glutamine and antibiotics (Biological Industries, Bet Haemek, Israel) and maintained at 2×10^6 cells/ml (37° C./5% CO2).
Determination of TNF-α, IFN-γ, IL-10 and IL-4 by ELISA: Freshly-purified normal resting human T-cells (2×10^6/ml) were incubated in 24-well plates (Costar, Corning, N.Y.) and the various channel blockers were added. […] Cytokine levels were measured in supernatants after 24 hours for TNF-α and IFN-γ and after 72 hours for IL-10 and IL-4, by quantitative sandwich ELISA (R&D, Minneapolis, Minn.), according to the manufacturer's instructions. […]
These 12 blockers were selected on the basis of their reported ability to block most types of K^+, Na^+, Ca^2+ and Cl^− channels expressed in T-cells (Deutsch et al, 1986; Lewis et al, 1995; Lewis et al, 1988; Rader et al, 1996; Freedman et al, 1995; Koo et al, 1997; Lin et al, 1993; Ishida et al, 1993; Jensen et al, 1999; Kotturi et al, 2003; Phipps et al, 1996; Verheugen et al, 1997; Levite et al, 2000; Chandy et al, 1984). The levels of TNFα secreted into the culture media were tested 24 hours later by ELISA. For positive control, the cells were exposed to the potent phorbol ester PMA, know to activate T-cells in a non-specific manner. The results are shown in FIG. 1A and represent fold increase ±SD TNF-α secretion tested in 2-3 independent experiments. Each ion channel blocker was examined in at least two independent experiments, and at several concentrations covering its effective range (see Materials and Methods). The numbers in each figure next to each blocker represent the highest molar concentration used. Statistical analysis: *P=0.0001, 0.0005, 0.0011 and 0.0005 vs. untreated for MgTX, KTX, DTX-K and PMA, respectively (Student's t-test).

TNF-α mRNA = assay: RT-PCR for TNF-α mRNA in normal human T-cells; type: cell-based; conditions: 100 nM DTX-K for 24 hr; normalized to S14; FIG. 3A
Protocol: RT-PCR for TNF-α and Kv1.1: Total RNA was prepared according to Tri-Reagent protocol (MRC, Cincinnati, Ohio). First-strand cDNA was synthesized by Reverse Transcription System (Promega, Madison, Wis.). RT-PCR was conducted in a 50 μl reaction mixture containing 50 ng cDNA, 5 μl of X10 Optibuffer (Bioline, London, UK), 3 μl of 50 mM MgCl2, 2.5 μl of 10 mM dNTP mix (Promega), 4U of Bio-X-act DNA Polymerase (Bioline). For TNF-α/S14 parallel amplification, 2 μl of each TNF-α primer (10 pmol/μl) and 0.25 μl of each S14 primer (10 pmol/μl) were used. For Kv1.1/S14 parallel amplification, 5 μl of each Kv1.1 primer (100 pmol/μl) and 2.5 μl of each S14 primer (10 pmol/μl) were used. […]; Conditions for TNF-α PCR were: 94° C. for 1 minute, 63° C. for 40 seconds and 72° C. for 40 seconds (29 cycles). Conditions for Kv1.1 PCR were: 94° C. for 3 minutes (one cycle); 94° C. for 1 minute, 60/57/54/51/48° C. for 2 minutes and 72° C. for 3 minutes (three cycles each); 94° C. for 1 minute, 50° C. for 2 minutes and 72° C. for 3 minutes (25 cycles). […]
The question of whether selective block of Kv1.1 subunit containing channels in T-cells elevates not only the levels of the TNF-α protein, but also TNF-α mRNA was studied next. […] Bars at the bottom represent fold increase TNF-α mRNA calculated following densitometric analysis and normalization of the corresponding RT-PCR bands of TNF-α/S14. […]

## Dendrotoxin-K (AAKYCKLPLRIGPCKRKIPSFYYKWKAKQCLPFDYSGCGGNANRFKTIEECRRTCVG) [DTX-K]
Human T-cells
  effect on cell survival or proliferation: no significant effect
Normal human T-cells; 100 nM DTX-K, 24 hours, FIG. 2B
  IFN-γ secretion: not affecting
Normal human T-cells; 100 nM DTX-K, 24 hr, FIG. 2A
  TNFα secretion: elevated
Normal human T-cells; 100 nM DTX-K, 72 hours, FIG. 2C
  IL-10 secretion: not affecting
Normal human T-cells; 100 nM DTX-K, 72 hours, FIG. 2D
  IL-4 secretion: not affecting
Normal human T-cells; 100 nM DTX-K, after 16 hours, individuals 4 and 5
  TNFα secretion, time course: significantly elevated
Normal human T-cells; 100 nM DTX-K, after 72 hours, individuals 4 and 5
  TNF-α secretion, time course: remained significantly high
Normal human T-cells; DTX-K either during or after TCR-activation, data not shown
  additional elevation in TNFα levels beyond TCR-activation alone: did not cause additional elevation
Normal human T-cells; FIG. 1A, 24 hours, DTX-K 100 nM, other blockers at highest concentration used, no other stimulus
  fold increase in TNFα secretion: 33.4 fold increase
Normal human T-cells; FIG. 1B, 24 hour exposure, 100 nM DTX-K
  fold increase in TNFα secretion: 8.7 fold
Normal human T-cells; FIG. 1B, 24 hour exposure, 1 μM DTX-K
  fold increase in TNFα secretion: 39.5 fold
Normal human T-cells; individual 1 (FIG. 1C), 24 hours, 100 nM
  fold increase TNF-α secretion: 22.3 fold
Normal human T-cells; individual 2 (FIG. 1D), 24 hours, 100 nM
  fold increase TNF-α secretion: 8.7 fold
Normal human T-cells; individual 3 (FIG. 1E), 24 hours, 100 nM
  fold increase TNF-α secretion: 49.0 fold
Normal human T-cells; individual 4 (FIG. 1F), 24 hours, 100 nM
  fold increase TNF-α secretion: 34.4 fold
Normal human T-cells; individual 4 (FIG. 1F), 24 hours, 100 nM, untreated 38 pg/ml
  TNF-α secreted to the culture media: 1308 pg/mL
Normal human T-cells; individual 5 (FIG. 1G), 24 hours, 100 nM
  fold increase TNF-α secretion: 2.4 fold
Normal human T-cells; individual 6 (FIG. 1H), 24 hours, 100 nM
  fold increase TNF-α secretion: 2.0 fold
TNF-α mRNA
  TNFα mRNA levels: augmented
